Structures are written as SMILES. Where a name gives a salt, the structure may show the parent alone.

This assay addresses T1, recombinant human MetAP2 (Homo sapiens, UniProt P50579).
T1 construct: Flag; made in house; host or cells: Sf9 insect cells
Put plainly: Inhibition of recombinant human MetAP2 activity (Amplex red fluorescence assay). The format is biochemical. The following applies: manganese Flag-MetAP2, 0.75 mM Methionine-Alanine-Serine substrate, 30 minutes at 25° C., pH 7.5, 1% DMSO. The protocol: Compounds are tested for their capacity to inhibit recombinant human MetAP2 activity using the following assay.
Human recombinant Flag-MetAP2 expressed in Sf9 cells followed by affinity purification and EDTA treatment to remove endogenous active site cation is dialysed against MnCl2 to produce the manganese enzyme used in the assay. The assay is carried out for 30 minutes at 25° C. in 50 mM HEPES buffer containing 100 mM NaCl, pH 7.5 the presence of 0.75 mM Methionine-Alanine-Serine (MAS) substrate and 50 μg/ml amino acid oxidase using a dilution of purified MetAP2 giving approximately 50,000 RFU control activity. Cleavage of the substrate by MetAP2 and oxidation of free methionine by amino acid oxidase is detected and quantified using fluorescence generated by Amplex red (10-acetyl-3,7-dihydroxyphenoxazine) in combination with horseradish peroxidase which detects H2O2 released during the oxidation step. The fluorescent signal is detected using a multiwell fluorimeter. Compounds are diluted in DMSO prior to addition to assay buffer, the final DMSO concentration in the assay being 1%.
The IC50 is defined as the concentration at which a given compound achieves 50% inhibition of control. IC50 values are calculated using the XLfit software package (version 2.0.5).

T1 sequence (P50579 whole entry): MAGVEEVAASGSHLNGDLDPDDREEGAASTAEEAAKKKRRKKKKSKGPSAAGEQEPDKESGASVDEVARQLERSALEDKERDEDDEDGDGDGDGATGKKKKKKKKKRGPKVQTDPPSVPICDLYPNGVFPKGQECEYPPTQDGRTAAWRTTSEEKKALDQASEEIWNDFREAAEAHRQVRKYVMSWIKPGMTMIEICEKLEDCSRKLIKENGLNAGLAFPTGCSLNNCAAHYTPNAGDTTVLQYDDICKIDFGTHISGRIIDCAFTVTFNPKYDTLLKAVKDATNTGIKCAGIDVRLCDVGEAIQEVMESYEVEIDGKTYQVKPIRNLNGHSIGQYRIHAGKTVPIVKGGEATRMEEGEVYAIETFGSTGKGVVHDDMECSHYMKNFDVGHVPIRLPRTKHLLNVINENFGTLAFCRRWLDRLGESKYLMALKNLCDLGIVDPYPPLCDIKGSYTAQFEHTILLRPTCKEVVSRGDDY

As to `O=C(O)c1c(CS(=O)(=O)c2ccccc2)ccc2ccccc12` [2-(Benzenesulphonylmethyl)naphthalene-1-carboxylic acid], the IC50 was in the range of 200 to 2000 nM. To `COc1c(-c2ccoc2)ccc(CS(=O)(=O)C2CC3CCC2CC3)c1C(=O)O` (stereo not drawn) [6-(Bicyclo[2.2.2]octane-2-ylsulphonylmethyl)-3-(furan-3-yl)-2-methoxybenzoic acid] belongs more than 2000 nM. The result for `CCCc1ccc(CS(=O)(=O)c2ccccc2)c(C(=O)O)c1OC` [6-(Benzenesulphonylmethyl)-2-methoxy-3-propyl-benzoic acid] reads more than 2000 nM; that for `CN(C)CCOc1c(-c2ccoc2)ccc(CS(=O)(=O)c2ccccc2)c1C(=O)O` [6-(Benzenesulphonylmethyl)-2-(2-dimethylaminoethoxy)-3-(3-furanyl)benzoic acid hydrochloride], more than 2000 nM. To `COCCOc1c(-c2ccoc2)ccc(CS(=O)(=O)c2ccccc2)c1C(=O)O` [6-(Benzenesulphonylmethyl)-3-(furan-3-yl)-2-(2-methoxyethoxy)-benzoic acid] belongs more than 2000 nM; to `O=C(O)c1cc(-c2cnco2)ccc1CS(=O)(=O)c1ccccc1` [2-(Benzenesulphonylmethyl)-5-(oxazol-5-yl)benzoic acid], more than 2000 nM. Consider `COc1c(-c2cocn2)ccc(CS(=O)(=O)c2ccccc2)c1C(=O)O` [6-(Benzenesulphonylmethyl)-3-(oxazol-4-yl)-2-methoxybenzoic acid], for which the IC50 was more than 2000 nM.

Regarding `CCc1ccc(C(C)S(=O)(=O)c2ccccc2)c(C(=O)O)c1OC` (stereo not drawn) [6-(1-Benzenesulphonylethyl)-3-ethyl-2-methoxy-benzoic acid], the IC50 was 200 to 2000 nM. To `NC(=O)COc1c(-c2ccoc2)ccc(CS(=O)(=O)c2ccccc2)c1C(=O)O` [6-(Benzenesulphonylmethyl)-2-(carbamoylmethoxy)-3-(furan-3-yl)-benzoic acid] belongs 200 to 2000 nM. To `COc1c(-c2ccoc2)ccc(CS(=O)(=O)c2cccc(O)c2)c1C(=O)O` [3-(Furan-3-yl)-6-(3-hydroxybenzenesulphonylmethyl)-2-methoxy-benzoic acid] belongs 200 to 2000 nM; to `COc1c(C#N)ccc(CS(=O)(=O)c2ccccc2)c1C(=O)O` [6-(Benzenesulphonylmethyl)-3-cyano-2-methoxy-benzoic acid], more than 2000 nM. The result for `NCCNc1c(-c2ccoc2)ccc(CS(=O)(=O)c2ccccc2)c1C(=O)O` [2-(2-Aminoethylamino)-6-benzenesulphonylmethyl-3-(furan-3-yl)-benzoic acid hydrochloride] reads more than 2000 nM. Consider `COc1c(-n2cccn2)ccc(CS(=O)(=O)c2ccccc2)c1C(=O)O` [6-(Benzenesulphonylmethyl)-2-methoxy-3-(pyrazol-1-yl)benzoic acid], for which the half-maximal inhibitory concentration (IC50) was more than 2000 nM. Take `O=C(O)c1c(CS(=O)(=O)c2ccccc2)ccc(-c2ccoc2)c1OCCO` [6-(Benzenesulphonylmethyl)-3-(furan-3-yl)-2-(2-hydroxyethoxy)benzoic acid]: the IC50 was less than 200 nM. To `COc1c(-c2ccoc2)ccc(CS(=O)(=O)c2ccccn2)c1C(=O)O` [3-(Furan-3-yl)-2-methoxy-6-(pyridin-2-ylsulphonylmethyl)benzoic acid] belongs less than 200 nM; to `CNCCOc1c(-c2ccoc2)ccc(CS(=O)(=O)c2ccccc2)c1C(=O)O` [6-(Benzenesulphonylmethyl)-3-(furan-3-yl)-2-[2-(methylamino)-ethoxy]benzoic acid hydrochloride], more than 2000 nM.

`NCCOc1c(-c2ccoc2)ccc(CS(=O)(=O)c2ccc(F)cc2)c1C(=O)O` [2-(2-Aminoethoxy)-6-(4-fluorobenzenesulphonylmethyl)-3-(furan-3-yl)benzoic acid hydrochloride]: the IC50 was less than 200 nM. To `CCc1ccc(CS(=O)(=O)c2ccccc2)c(C(=O)O)c1OC` [6-(Benzenesulphonylmethyl)-3-ethyl-2-methoxy-benzoic acid] belongs 200 to 2000 nM; to `COc1c(-c2ccoc2)ccc(CS(=O)(=O)c2ccccc2F)c1C(=O)O` [6-(2-Fluorobenzenesulphonylmethyl)-3-(furan-3-yl)-2-methoxybenzoic acid], 200 to 2000 nM; to `COc1c(-c2ccccc2)ccc(CS(=O)(=O)c2ccccc2)c1C(=O)O` [6-(Benzenesulphonylmethyl)-2-methoxy-3-phenylbenzoic acid], more than 2000 nM. The result for `CCc1c(-c2ccoc2)ccc(CS(=O)(=O)c2ccccc2)c1C(=O)O` [6-(Benzenesulphonylmethyl)-2-ethyl-3-(furan-3-yl)benzoic acid] reads 200 to 2000 nM; that for `COc1c(-c2ccoc2)ccc(CS(=O)(=O)N2C3CCCC2CC3)c1C(=O)O` [6-(8-Azabicyclo[3.2.1]octane-8-ylsulphonylmethyl)-3-(furan-3-yl)-2-methoxybenzoic acid], more than 2000 nM; that for `COc1c(-c2cnco2)ccc(CS(=O)(=O)c2ccccc2)c1C(=O)O` [6-(Benzenesulphonylmethyl)-2-methoxy-3-(oxazol-5-yl)benzoic acid], 200 to 2000 nM. To `CC(N)COc1c(-c2ccoc2)ccc(CS(=O)(=O)c2ccccc2)c1C(=O)O` (stereo not drawn) [2-(2-Aminopropoxy)-6-(benzenesulphonylmethyl)-3-(furan-3-yl)-benzoic acid hydrochloride] belongs more than 2000 nM. With `CCN(CC)CCNc1ccccc1S(=O)(=O)Cc1ccc(-c2ccoc2)c(OC)c1C(=O)O` [6-[2-(2-Diethylaminoethylamino)benzenesulphonylmethyl]-3-(furan-3-yl)-2-methoxybenzoic acid], the IC50 was in the range of 200 to 2000 nM. As to `COc1c(C)ccc(CS(=O)(=O)c2ccccc2)c1C(=O)O` [6-(Benzenesulphonylmethyl)-2-methoxy-3-methyl-benzoic acid], the IC50 is 200 to 2000 nM. Turning to `COc1c(-c2ccoc2)ccc(CS(=O)(=O)c2ccccc2O)c1C(=O)O` [3-(Furan-3-yl)-6-(2-hydroxybenzenesulphonylmethyl)-2-methoxybenzoic acid], the IC50 was less than 200 nM. To `CCN(CC)CCCNc1ccccc1S(=O)(=O)Cc1ccc(-c2ccoc2)c(OC)c1C(=O)O` [6-[2-(3-Diethylaminopropylamino)benzenesulphonylmethyl]-3-(furan-3-yl)-2-methoxybenzoic acid] belongs less than 200 nM; to `COc1c(-c2ccoc2)ccc(CS(=N)(=O)c2ccccc2)c1C(=O)O` (stereo not drawn) [3-(Furan-3-yl)-2-methoxy-6-[(S-phenylsulphonimidoyl)methyl]benzoic acid], 200 to 2000 nM. To `COc1c(-c2cccnc2)ccc(CS(=O)(=O)c2ccccc2)c1C(=O)O` [6-(Benzenesulphonylmethyl)-2-methoxy-3-(3-pyridyl)benzoic acid] belongs more than 2000 nM; to `Cn1nccc1-c1ccc(CS(=O)(=O)c2ccccc2)c(C(=O)O)c1` [2-(Benzenesulphonylmethyl)-5-(2-methyl-2H-pyrazol-3-yl)benzoic acid], more than 2000 nM. The result for `CCc1ccc(C[S+]([O-])c2ccccc2)c(C(=O)O)c1OC` (stereo not drawn) [6-(Benzenesulphinylmethyl)-3-ethyl-2-methoxy-benzoic acid] reads more than 2000 nM. With `CCc1ccc(CS(=O)(=O)c2ccccc2)c(C(=O)O)c1OCCN` [2-(2-Aminoethoxy)-3-ethyl-6-benzenesulphonylmethylbenzoic acid hydrochloride], the IC50 was less than 200 nM. The result for `NCCCc1c(-c2ccoc2)ccc(CS(=O)(=O)c2ccccc2)c1C(=O)O` [2-(3-Aminopropyl)-6-(benzenesulphonylmethyl)-3-(furan-3-yl)-benzoic acid hydrochloride] reads more than 2000 nM; that for `COc1c(-c2ccsc2)ccc(CS(=O)(=O)c2ccccc2)c1C(=O)O` [6-(Benzenesulphonylmethyl)-2-methyoxy-3-(thien-3-yl)benzoic acid], more than 2000 nM. To `COc1c(-c2cnsc2)ccc(CS(=O)(=O)c2ccccc2)c1C(=O)O` [6-(Benzenesulphonylmethyl)-3-(isothiazol-4-yl)-2-methoxybenzoic acid] belongs 200 to 2000 nM; to `NCCOc1c(-c2ccoc2)ccc(CS(=O)(=O)c2ccccc2)c1C(=O)O` [2-(2-Aminoethoxy)-6-(benzenesulphonylmethyl)-3-(furan-3-yl)benzoic acid hydrochloride], less than 200 nM; to `COc1c(-c2ccoc2)ccc(CS(=O)(=O)N2C3CCC2CC3)c1C(=O)O` [6-(7-Azabicyclo[2.2.1]heptane-7-ylsulphonylmethyl)-3-(furan-3-yl)-2-methoxybenzoic acid], 200 to 2000 nM.

Take `COc1c(-c2ccoc2)ccc(CS(=O)(=NC#N)c2ccccc2)c1C(=O)O` (stereo not drawn) [6-[(N-cyano-S-phenylsulphonimidoyl)methyl]-3-(furan-3-yl)-2-methoxybenzoic acid]: the IC50 was less than 200 nM. Take `NCCCOc1c(-c2ccoc2)ccc(CS(=O)(=O)c2ccccc2)c1C(=O)O` [2-(3-Aminopropoxy)-6-(benzenesulphonylmethyl)-3-(furan-3-yl)benzoic acid hydrochloride]: the IC50 fell in the range of 200 to 2000 nM. The result for `NCCOc1c(-c2ccoc2)ccc(CS(=O)(=O)c2cccc(Cl)c2)c1C(=O)O` [2-(2-Aminoethoxy)-6-(3-chlorobenzenesulphonylmethyl)-3-(furan-3-yl)benzoic acid hydrochloride] reads less than 200 nM. As to `COc1cccc2ccc(CS(=O)(=O)c3ccccc3)c(C(=O)O)c12` [2-(Benzenesulphonylmethyl)-8-methoxynaphthalene-1-carboxylic acid], the IC50 was more than 2000 nM.

The values are drawn from patent US9067905B2, “Sulphone compounds and methods of making and using same” (Zafgen, Inc., priority 2009, dated 2015).
